# The source made the active and inactive calls. The calls are words filed in the database; no cut-off is given here.
# Tests used:
# [1] = tested on: Staphylococcus epidermidis; experiment: Antibacterial activity against Staphylococcus epidermidis ATCC 14940 after 18 hrs; assay type: functional; details: ATCC 14940, 18 h
# Escherichia coli [2] = experiment: Antibacterial activity against Escherichia coli ATCC 25922 after 18 hrs; assay type: functional; details: ATCC 25922, 18 h
# [3] = tested on: Staphylococcus epidermidis; experiment: Antibacterial activity against Staphylococcus epidermidis ATCC 12228 after 18 hrs; assay type: functional; details: ATCC 12228, 18 h
# Klebsiella pneumoniae = experiment: Antibacterial activity against Klebsiella pneumoniae ATCC 10031 after 18 hrs; assay type: functional; details: ATCC 10031, 18 h
# Shigella flexneri = experiment: Antibacterial activity against Shigella flexneri NCTC 8516 after 18 hrs; assay type: functional; details: NCTC 8516, 18 h
# Staphylococcus aureus [4] = experiment: Antibacterial activity against Staphylococcus aureus ATCC 25923 after 18 hrs; assay type: functional; details: ATCC 25923, 18 h
# Staphylococcus aureus [5] = experiment: Antibacterial activity against Staphylococcus aureus ATCC 6538p after 18 hrs; assay type: functional
# Staphylococcus aureus [6] = experiment: Antibacterial activity against methicillin-resistant Staphylococcus aureus isolate 1 after 18 hrs; assay type: functional
# Pseudomonas aeruginosa = experiment: Antibacterial activity against Pseudomonas aeruginosa ATCC 27853 after 18 hrs; assay type: functional; details: ATCC 27853, 18 h
# Bacillus subtilis = experiment: Antibacterial activity against Bacillus subtilis ATCC 6051 after 18 hrs; assay type: functional; details: ATCC 6051, 18 h
# Escherichia coli [7] = experiment: Antibacterial activity against Escherichia coli NCTC 12900 after 18 hrs; assay type: functional; details: NCTC 12900, 18 h
# Salmonella typhi = experiment: Antibacterial activity against Salmonella typhi ATCC 19430 after 18 hrs; assay type: functional, Salmonella enterica subsp. enterica serovar Typhi; details: Salmonella enterica, ATCC 19430, 18 h
# Serratia marcescens = experiment: Antibacterial activity against Serratia marcescens PTCC 1111 after 18 hrs; assay type: functional
# Staphylococcus aureus [8] = experiment: Antibacterial activity against methicillin-resistant Staphylococcus aureus isolate 2 after 18 hrs; assay type: functional
# Enterococcus faecalis = experiment: Antibacterial activity against Enterococcus faecalis NCTC 6013 after 18 hrs; assay type: functional; details: NCTC 6013, 18 h
# MCF7 = experiment: Cytotoxic activity against human MCF7 cells after 48 hrs by MTT reduction assay; assay type: functional, cell-based; details: for IC50: MCF7, 48 h
Structure (SMILES),MIC [1] [µg/mL],MIC (Escherichia coli [2]) [µg/mL],MIC [3] [µg/mL],MIC (Klebsiella pneumoniae) [µg/mL],MIC (Shigella flexneri) [µg/mL],MIC (Staphylococcus aureus [4]) [µg/mL],MIC (Staphylococcus aureus [5]) [µg/mL],MIC (Staphylococcus aureus [6]) [µg/mL],MIC (Pseudomonas aeruginosa) [µg/mL],MIC (Bacillus subtilis) [µg/mL],MIC (Escherichia coli [7]) [µg/mL],MIC (Salmonella typhi) [µg/mL],MIC (Serratia marcescens) [µg/mL],MIC (Staphylococcus aureus [8]) [µg/mL],MIC (Enterococcus faecalis) [µg/mL],IC50 (MCF7) [µM],Activity (MCF7)
C[C@H]1COc2c(N3CCN(CC(=O)c4ccccc4)CC3)c(F)cc3c(=O)c(C(=O)O)cn1c23,0.5,0.12,0.5,0.5,0.25,0.5,0.5,0.5,> 4,0.5,0.25,0.12,4,1,4,,
COc1ccc(C(=O)CN2CCN(c3c(F)cc4c(=O)c(C(=O)O)cn5c4c3OC[C@@H]5C)CC2)cc1,0.25,0.5,0.25,4,0.5,0.5,0.5,0.5,> 4,0.25,0.5,0.5,4,1,0.06,,
C[C@H]1COc2c(N3CCN(C/C(=N\O)c4ccc(Br)cc4)CC3)c(F)cc3c(=O)c(C(=O)O)cn1c23,0.12,4,0.25,> 4,0.5,0.5,0.5,0.5,> 4,0.12,1,0.5,> 4,0.5,0.06,5.2,
C[C@H]1COc2c(N3CCN(C/C(=N\O)c4ccc(F)cc4)CC3)c(F)cc3c(=O)c(C(=O)O)cn1c23,0.5,4,0.5,> 4,1,1,1,1,> 4,0.25,2,1,> 4,1,0.25,,
C[C@H]1COc2c(N3CCN(C/C(=N\O)c4ccc(Cl)cc4)CC3)c(F)cc3c(=O)c(C(=O)O)cn1c23,0.12,2,0.25,> 4,0.5,0.5,0.25,0.5,> 4,0.25,1,0.5,> 4,0.25,0.06,5.2,
COc1cc([C@@H]2c3cc4c(cc3[C@@H](O[C@@H]3O[C@@H]5CO[C@@H](C)O[C@H]5[C@H](O)[C@H]3O)[C@H]3COC(=O)[C@H]23)OCO4)cc(OC)c1O [ETOPOSIDE],,,,,,,,,,,,,,,,3.2,
Cc1ccc(C(=O)CN2CCN(c3c(F)cc4c(=O)c(C(=O)O)cn5c4c3OC[C@@H]5C)CC2)cc1,0.5,1,0.5,> 4,0.5,0.5,1,1,> 4,0.5,0.5,1,> 4,1,0.25,,
C[C@H]1COc2c(N3CCN(CC(=O)c4ccc(Cl)cc4Cl)CC3)c(F)cc3c(=O)c(C(=O)O)cn1c23,0.5,1,1,> 4,1,0.5,1,0.5,> 4,1,2,2,> 4,1,0.5,,
C[C@H]1COc2c(N3CCN(C)CC3)c(F)cc3c(=O)c(C(=O)O)cn1c23.C[C@H]1COc2c(N3CCN(C)CC3)c(F)cc3c(=O)c(C(=O)O)cn1c23.O [LEVOFLOXACIN],0.5,,0.25,0.25,0.03,0.5,0.25,0.25,,0.5,,0.03,0.5,0.25,1,,
C[C@H]1COc2c(N3CCN(C/C(=N\O)c4ccc(Cl)cc4Cl)CC3)c(F)cc3c(=O)c(C(=O)O)cn1c23,0.5,4,0.5,> 4,4,0.5,0.5,0.5,> 4,1,4,4,> 4,0.5,4,,
C[C@H]1COc2c(N3CCN(CC(=O)c4ccc(Br)cc4)CC3)c(F)cc3c(=O)c(C(=O)O)cn1c23,0.25,0.5,0.25,> 4,0.5,0.5,1,1,> 4,0.25,0.5,0.5,4,0.5,0.12,5.2,
COc1ccc(/C(CN2CCN(c3c(F)cc4c(=O)c(C(=O)O)cn5c4c3OC[C@@H]5C)CC2)=N/O)cc1,0.5,0.5,0.5,> 4,0.5,1,0.5,1,> 4,0.12,0.5,0.5,> 4,0.5,0.06,,
C[C@H]1COc2c(N3CCNCC3)c(F)cc3c(=O)c(C(=O)O)cn1c23 [N-DESMETHYL LEVOFLOXACIN],1,0.12,1,0.25,0.06,4,2,2,> 4,1,0.12,0.06,1,2,0.06,,
C[C@H]1COc2c(N3CCN(CC(=O)c4ccc(Cl)cc4)CC3)c(F)cc3c(=O)c(C(=O)O)cn1c23,0.12,0.5,0.25,> 4,0.25,0.5,0.5,0.25,> 4,0.12,1,0.25,4,0.25,0.06,5.2,
C[C@H]1COc2c(N3CCN(CC(=O)c4ccc(F)cc4)CC3)c(F)cc3c(=O)c(C(=O)O)cn1c23,0.5,1,0.5,> 4,1,1,1,0.5,> 4,0.5,2,1,> 4,1,0.25,,
C[C@H]1COc2c(N3CCN(C/C(=N\OCc4ccccc4)c4ccccc4)CC3)c(F)cc3c(=O)c(C(=O)O)cn1c23,> 4,> 4,> 4,> 4,> 4,> 4,> 4,> 4,> 4,> 4,> 4,> 4,> 4,> 4,> 4,,inactive
C[C@H]1COc2c(N3CCN(C/C(=N\O)c4ccccc4)CC3)c(F)cc3c(=O)c(C(=O)O)cn1c23,0.5,4,0.5,4,0.5,0.5,0.5,0.5,> 4,0.25,4,0.5,> 4,1,4,,
Cc1ccc(/C(CN2CCN(c3c(F)cc4c(=O)c(C(=O)O)cn5c4c3OC[C@@H]5C)CC2)=N/O)cc1,0.5,1,0.5,> 4,1,1,0.5,0.5,> 4,0.5,1,1,> 4,0.5,0.25,,

# From ChEMBL document CHEMBL1147210, “Synthesis and antibacterial activity of levofloxacin derivatives with certain bulky residues on piperazine ring” (Eur J Med Chem, 2007)
